Measurements as given in patent US20250215030A1, “STAT MODULATORS AND USES THEREOF” (Recludix Pharma, Inc., priority 2022, published 2025).

Key:
[1] = target: T1, Recombinant STAT6 protein (STAT6(W123-T658)) (Homo sapiens, UniProt P42226); assay: STAT6 Fluorescence Polarization (FP) Assay; format: binding; settings: STAT6(W123-T658) 250 nM, probe 5-FAM-ApYKPFQDLI-NH2 2 nM, 45-minute incubation
T1 construct: STAT6(W123-T658)
T1 sequence (P42226 123-658): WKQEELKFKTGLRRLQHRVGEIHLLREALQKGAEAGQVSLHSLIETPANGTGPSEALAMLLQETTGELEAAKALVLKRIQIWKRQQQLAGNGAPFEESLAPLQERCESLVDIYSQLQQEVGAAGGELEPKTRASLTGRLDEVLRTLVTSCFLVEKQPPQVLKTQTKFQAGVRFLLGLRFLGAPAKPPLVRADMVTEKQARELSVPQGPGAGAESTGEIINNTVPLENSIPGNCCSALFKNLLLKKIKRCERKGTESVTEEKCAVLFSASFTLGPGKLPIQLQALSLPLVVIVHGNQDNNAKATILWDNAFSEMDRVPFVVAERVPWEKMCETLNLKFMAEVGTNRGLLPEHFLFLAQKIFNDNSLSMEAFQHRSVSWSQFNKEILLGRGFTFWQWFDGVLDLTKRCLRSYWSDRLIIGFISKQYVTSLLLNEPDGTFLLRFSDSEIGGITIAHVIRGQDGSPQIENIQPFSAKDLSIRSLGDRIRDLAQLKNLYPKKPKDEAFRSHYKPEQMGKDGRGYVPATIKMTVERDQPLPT
How it was run: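 Competitive displacement of a fluorescent phosphotyrosine peptide (2 nM) from recombinant STAT6 W123-T658 (250 nM), 45 min at room temperature in 10 mM HEPES pH 7.4, 50 mM NaCl, 2 mM DTT. mP fitted against log compound for IC50, grouped A (≤300 nM) to D (>30 μM).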

[2] = target: T2, Recombinant STAT3 protein (STAT3(G127-I722)) (Homo sapiens, UniProt P40763); assay: STAT3 Fluorescence Polarization (FP) Assay; format: binding; settings: STAT3(G127-I722) 25 nM, probe 5-FAM-GpYLPQTV-NH2 2 nM, 45-minute incubation
T2 construct: STAT3(G127-I722)
How it was run: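 Serially diluted compounds (1% DMSO) were mixed with 2 nM fluorescent phosphotyrosine peptide and 25 nM STAT3 construct G127-I722, pH 7.4, incubated 45 min at room temperature. IC50 values from fitted polarization curves are reported as categories A (≤100 nM), B, C, D (>10 μM).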

T2 sequence (P40763 127-722, species assumed): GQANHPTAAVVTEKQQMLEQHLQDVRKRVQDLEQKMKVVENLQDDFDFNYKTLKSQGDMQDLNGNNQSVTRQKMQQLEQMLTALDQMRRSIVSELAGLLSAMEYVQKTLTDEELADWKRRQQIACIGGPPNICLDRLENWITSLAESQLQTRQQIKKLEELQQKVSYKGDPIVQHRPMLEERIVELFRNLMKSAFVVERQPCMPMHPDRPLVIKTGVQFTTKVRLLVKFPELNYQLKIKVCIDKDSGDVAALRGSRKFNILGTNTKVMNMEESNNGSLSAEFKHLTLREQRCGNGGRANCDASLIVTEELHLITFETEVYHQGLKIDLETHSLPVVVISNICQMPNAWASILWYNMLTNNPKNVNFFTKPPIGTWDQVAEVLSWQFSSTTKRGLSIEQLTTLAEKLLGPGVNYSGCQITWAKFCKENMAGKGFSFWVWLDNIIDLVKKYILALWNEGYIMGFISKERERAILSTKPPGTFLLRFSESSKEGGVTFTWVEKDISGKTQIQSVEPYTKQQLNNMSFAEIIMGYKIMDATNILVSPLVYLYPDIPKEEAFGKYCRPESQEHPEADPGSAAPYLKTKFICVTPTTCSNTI

Row | SMILES | IC50 [1] | IC50 [2]
1 | O=C(N[C@H]1C[C@@H]2C[C@@H]2C[C@H]2CC[C@@H](C(=O)N[C@@H]3CCN(C4CCOCC4)C3)N2C1=O)c1cc2cc(C(F)(F)P(=O)(O)O)ccc2s1 [Compound 119, (difluoro(2-(((3S,6S,7aS,8aR,9aR)-5-oxo-3-(((R)-1-(tetrahydro-2H-pyran-4-yl)pyrrolidin-3-yl)carbamoyl)decahydro-1H-cyclopropa[d]pyrrolo[1,2-a]azocin-6-yl)carbamoyl)benzo[b]thiophen-5-yl)methyl)phosphonic acid] | 3 to 30 µM | 0.1 to 1 µM
2 | CN=S(C)(=O)CC1CN(C(=O)[C@@H]2CC[C@@H]3C[C@@H]4C[C@@H]4C[C@H](NC(=O)c4cc5cc(C(F)(F)P(=O)(O)O)ccc5s4)C(=O)N32)C1 (stereo partly drawn) [Compound 72, ((2-(((3S,6S,7aR,8aS,9aR)-3-(3-((N,S-dimethylsulfonimidoyl)methyl)azetidine-1-carbonyl)-5-oxodecahydro-1H-cyclopropa[d]pyrrolo[1,2-a]azocin-6-yl)carbamoyl)benzo[b]thiophen-5-yl)difluoromethyl)phosphonic acid] | 3 to 30 µM | < 0.1 µM
3 | O=C(N[C@H]1C[C@@H]2C[C@@H]2C[C@H]2CC[C@@H](C(=O)Nc3ccc(-c4ccccc4)cc3)N2C1=O)c1cc2cc(C(F)(F)P(=O)(O)O)ccc2s1 [Compound 32, ((2-(((3S,6S,7aS,8aR,9aR)-3-([1,1′-biphenyl]-4-ylcarbamoyl)-5-oxodecahydro-1H-cyclopropa[d]pyrrolo[1,2-a]azocin-6-yl)carbamoyl)benzo[b]thiophen-5-yl)difluoromethyl)phosphonic acid] | 0.3 to 3 µM | < 0.1 µM
4 | C[C@H]1CN(C(=O)C2CN(C(=O)[C@@H]3CC[C@@H]4C[C@H]5C[C@H]5C[C@H](NC(=O)c5cc6cc(C(F)(F)P(=O)(O)O)ccc6s5)C(=O)N43)C2)CCO1 [Compound 12, (difluoro(2-(((3S,6S,7aS,8aR,9aR)-3-(3-((S)-2-methylmorpholine-4-carbonyl)azetidine-1-carbonyl)-5-oxodecahydro-1H-cyclopropa[d]pyrrolo[1,2-a]azocin-6-yl)carbamoyl)benzo[b]thiophen-5-yl)methyl)phosphonic acid] | 3 to 30 µM | < 0.1 µM
5 | CC(=O)N1CC[C@H](NC(=O)[C@@H]2CC[C@@H]3C[C@H]4C[C@H]4C[C@H](NC(=O)c4cc5cc(C(F)(F)P(=O)(O)O)ccc5s4)C(=O)N32)C1 [Compound 117, ((2-(((3S,6S,7aS,8aR,9aR)-3-(((S)-1-acetylpyrrolidin-3-yl)carbamoyl)-5-oxodecahydro-1H-cyclopropa[d]pyrrolo[1,2-a]azocin-6-yl)carbamoyl)benzo[b]thiophen-5-yl)difluoromethyl)phosphonic acid] | 0.3 to 3 µM | < 0.1 µM
6 | O=C(N[C@H]1C[C@@H]2C[C@@H]2C[C@H]2CC[C@@H](C(=O)N3CC(F)(c4ccccc4)C3)N2C1=O)c1cc2cc(C(F)(F)P(=O)(O)O)ccc2s1 [Compound 64, (difluoro(2-(((3S,6S,7aS,8aR,9aR)-3-(3-fluoro-3-phenylazetidine-1-carbonyl)-5-oxodecahydro-1H-cyclopropa[d]pyrrolo[1,2-a]azocin-6-yl)carbamoyl)benzo[b]thiophen-5-yl)methyl)phosphonic acid] | 0.3 to 3 µM | < 0.1 µM
7 | Cc1cccc(C2CN(C(=O)[C@@H]3CC[C@@H]4C[C@@H]5C[C@@H]5C[C@H](NC(=O)c5cc6cc(C(F)(F)P(=O)(O)O)ccc6s5)C(=O)N43)C2)n1 [Compound 60, (difluoro(2-(((3S,6S,7aR,8aS,9aR)-3-(3-(6-methylpyridin-2-yl)azetidine-1-carbonyl)-5-oxodecahydro-1H-cyclopropa[d]pyrrolo[1,2-a]azocin-6-yl)carbamoyl)benzo[b]thiophen-5-yl)methyl)phosphonic acid] | 0.3 to 3 µM | < 0.1 µM
8 | N#Cc1ccc(C2(F)CN(C(=O)[C@@H]3CC[C@@H]4C[C@H]5C[C@H]5C[C@H](NC(=O)c5cc6cc(C(F)(F)P(=O)(O)O)ccc6s5)C(=O)N43)C2)cc1 [Compound 62, ((2-(((3S,6S,7aS,8aR,9aR)-3-(3-(4-cyanophenyl)-3-fluoroazetidine-1-carbonyl)-5-oxodecahydro-1H-cyclopropa[d]pyrrolo[1,2-a]azocin-6-yl)carbamoyl)benzo[b]thiophen-5-yl)difluoromethyl)phosphonic acid] | 0.3 to 3 µM | < 0.1 µM
9 | Cn1cnnc1C1CN(C(=O)[C@@H]2CC[C@@H]3C[C@@H]4C[C@@H]4C[C@H](NC(=O)c4cc5cc(C(F)(F)P(=O)(O)O)ccc5s4)C(=O)N32)C1 [Compound 76, (difluoro(2-(((3S,6S,7aR,8aS,9aR)-3-(3-(4-methyl-4H-1,2,4-triazol-3-yl)azetidine-1-carbonyl)-5-oxodecahydro-1H-cyclopropa[d]pyrrolo[1,2-a]azocin-6-yl)carbamoyl)benzo[b]thiophen-5-yl)methyl)phosphonic acid] | 3 to 30 µM | < 0.1 µM

Next, values leading:

Row | IC50 [1] | IC50 [2] | SMILES
10 | 3 to 30 µM | 1 to 10 µM | O=C(N[C@H]1C[C@@H]2C[C@@H]2C[C@H]2CC[C@@H](C(=O)N3CCN(C4COC4)c4ccccc43)N2C1=O)c1cc2cc(C(F)P(=O)(O)O)ccc2s1 (stereo partly drawn) [Example 387, (fluoro(2-(((3S,6S,7aS,8aR,9aR)-3-(4-(oxetan-3-yl)-1,2,3,4-tetrahydroquinoxaline-1-carbonyl)-5-oxodecahydro-1H-cyclopropa[d]pyrrolo[1,2-a]azocin-6-yl)carbamoyl)benzo[b]thiophen-5-yl)methyl)phosphonic acid]
11 | 0.3 to 3 µM | < 0.1 µM | CC(=O)N1CC2C1CCN2C(=O)[C@@H]1CC[C@@H]2C[C@H]3C[C@H]3C[C@H](NC(=O)c3cc4cc(C(F)(F)P(=O)(O)O)ccc4s3)C(=O)N21 (stereo partly drawn) [Example 258, ((2-(((3S,6S,7aS,8aR,9aR)-3-(6-acetyl-2,6-diazabicyclo[3.2.0]heptane-2-carbonyl)-5-oxodecahydro-1H-cyclopropa[d]pyrrolo[1,2-a]azocin-6-yl)carbamoyl)benzo[b]thiophen-5-yl)difluoromethyl)phosphonic acid]
12 | 3 to 30 µM | < 0.1 µM | CN(C)c1ccncc1C1CN(C(=O)[C@@H]2CC[C@@H]3C[C@@H]4C[C@@H]4C[C@H](NC(=O)c4cc5cc([C@@H](F)P(=O)(O)O)ccc5s4)C(=O)N32)C1 (single isomer, unassigned) [Example 394]
13 | > 30 µM | < 0.1 µM | O=C(N[C@H]1C[C@@H]2C[C@@H]2C[C@H]2CC[C@@H](C(=O)N3CC(c4cnccc4F)C3)N2C1=O)c1cc2cc(CP(=O)(O)O)ccc2s1 [Example 247, ((2-(((3S,6S,7aS,8aR,9aR)-3-(3-(4-fluoropyridin-3-yl)azetidine-1-carbonyl)-5-oxodecahydro-1H-cyclopropa[d]pyrrolo[1,2-a]azocin-6-yl)carbamoyl)benzo[b]thiophen-5-yl)methyl)phosphonic acid]
14 | 3 to 30 µM | < 0.1 µM | O=C(N[C@H]1C[C@@H]2C[C@@H]2CC2CC[C@@H](C(=O)N3CC(c4cncnc4N4CCC4)C3)N2C1=O)c1cc2cc([C@@H](F)P(=O)(O)O)ccc2s1 (single isomer, unassigned) [Example 401]
15 | 3 to 30 µM | < 0.1 µM | Cn1cnnc1C1CN(C(=O)[C@@H]2CC[C@@H]3C[C@@H]4C[C@@H]4C[C@H](NC(=O)c4cc5cc(C(F)P(=O)(O)O)ccc5s4)C(=O)N32)C1 (stereo partly drawn) [Example 331, (fluoro(2-(((3S,6S,7aR,8aS,9aR)-3-(3-(4-methyl-4H-1,2,4-triazol-3-yl)azetidine-1-carbonyl)-5-oxodecahydro-1H-cyclopropa[d]pyrrolo[1,2-a]azocin-6-yl)carbamoyl)benzo[b]thiophen-5-yl)methyl)phosphonic acid]
16 | 3 to 30 µM | < 0.1 µM | O=C(N[C@H]1C[C@@H]2C[C@@H]2C[C@H]2CC[C@@H](C(=O)N3CC(c4cnccc4N4CCOCC4)C3)N2C1=O)c1cc2cc([C@H](F)P(=O)(O)O)ccc2s1 (single isomer, unassigned) [Example 406]
17 | 3 to 30 µM | < 0.1 µM | Cn1cc(C2CN(C(=O)[C@@H]3CC[C@@H]4C[C@H]5C[C@H]5C[C@H](NC(=O)c5cc6cc(C(F)(F)P(=O)(O)O)ccc6s5)C(=O)N43)C2)cn1 [Example 282, (difluoro(2-(((3S,6S,7aS,8aR,9aR)-3-(3-(1-methyl-1H-pyrazol-4-yl)azetidine-1-carbonyl)-5-oxodecahydro-1H-cyclopropa[d]pyrrolo[1,2-a]azocin-6-yl)carbamoyl)benzo[b]thiophen-5-yl)methyl)phosphonic acid]
